From patent publication US10821115B2, “Compounds that inhibit Mcl-1 protein” (priority 2017, dated 2020)
Where two headings read alike, the source gives them in different places.

How the values were obtained:
[1] = target: recombinant human Mcl-1 (residues 171-327) / Bim interaction (Homo sapiens (Human), UniProt Q07820); experiment: biochemical; format: binding; details: read-out: Mcl-1 HTRF IC50
[2] = test system: human multiple myeloma cell line, OPM-2; experiment: Cell viability assay (OPM-2 10 FBS), CellTiter-Glo; format: cell-based
In short: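 OPM-2 cells at 3000 cells/well in RPMI 1640 with 10% FBS were exposed to serially diluted compounds for 16 h at 37 °C, 5% CO2.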

[3] = TR-FRET, Mcl-1(171-327) / biotin-Bim (51-76)
[4] = read-out: OPM-2 10% FBS IC50 IP, OPM-2 cells, 10% FBS, 16 h, CellTiter-Glo
[5] = 0.1 nM Mcl-1(171-327), 0.05 nM biotin-Bim (51-76)
[6] = Homo sapiens, OPM-2, 16 h, read-out: OPM-2 10% FBS IC50 IP, OPM-2 cells, 10% FBS, 16 h incubation
[7] = Homo sapiens, OPM-2, 16 h, read-out: OPM-2 10% FBS IC50 IP, OPM-2 cells, 10% FBS, 16 h, CellTiter-Glo

recombinant human Mcl-1 (residues 171-327) / Bim interaction, sequence (Q07820 171-327): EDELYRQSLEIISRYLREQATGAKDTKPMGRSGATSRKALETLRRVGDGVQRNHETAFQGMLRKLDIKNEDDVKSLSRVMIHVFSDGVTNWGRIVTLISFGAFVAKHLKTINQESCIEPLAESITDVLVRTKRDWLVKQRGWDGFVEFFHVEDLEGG

Compound: C[C@@H]1[C@@H](C)CCC[C@@](O)(CC(=O)N2CCCCC2)[C@@H]2CC[C@H]2CN2C[C@@]3(CCCc4cc(Cl)ccc43)COc3ccc(cc32)C(=O)NS1(=O)=O [Example 100090, (1S,3′R,6′R,7′R,11′S,12′R)-6-chloro-7′-hydroxy-11′,12′-dimethyl-7′-(2-oxo-2-(1-piperidinyl)ethyl)-3,4-dihydro-2H,15′H-spiro[naphthalene-1,22′-[20]oxa[13]thia[1,14]diazatetracyclo [14.7.2.0~3,6~.0~19,24~]pentacosa[16,18,24]trien]-15′-one 13′,13′-dioxide]
- IC50 [1, 3]: 0.795 nM
- IC50 [2, 4]: 798 nM

Compound: CO[C@]1(CN2CC(C)(N(C)C)C2)/C=C/C[C@H](C)[C@@H](C)S(=O)(=O)NC(=O)c2ccc3c(c2)N(C[C@@H]2CC[C@H]21)C[C@@]1(CCCc2cc(Cl)ccc21)CO3 [Example 60, (1S,3′R,6′R,7′R,8′E,11′S,12′R)-6-chloro-7′-((3-(dimethylamino)-3-methyl-1-azetidinyl)methyl)-7′-methoxy-11′,12′-dimethyl-3,4-dihydro-2H,15′H-spiro[naphthalene-1,22′-[20]oxa[13]thia[1,14]diazatetracyclo [14.7.2.0~3,6~.0~19,24~]pentacosa[8,16,18,24]tetraen]-15′-one 13′,13′-dioxide]
- IC50 [1, 5]: 0.287 nM
- IC50 [2, 6]: 129 nM

Compound: C[C@@H]1[C@@H](C)CCC[C@@](O)(Cc2ccccn2)[C@@H]2CC[C@H]2CN2C[C@@]3(CCCc4cc(Cl)ccc43)COc3ccc(cc32)C(=O)NS1(=O)=O [Example 100104, (1S,3′R,6′R,7′R,11′S,12′R)-6-chloro-7′-hydroxy-11′,12′-dimethyl-7′-(2-pyridinylmethyl)-3,4-dihydro-2H,15′H-spiro[naphthalene-1,22′-[20]oxa[13]thia[1,14]diazatetracyclo [14.7.2.0~3,6~.0~19,24~]pentacosa[16,18,24]trien]-15′-one 13′,13′-dioxide]
- IC50 [1, 3]: 0.599 nM
- IC50 [2, 4]: 250 nM

Compound: CCCO[C@]1(CN2CCN(C3COC3)CC2)/C=C/C[C@H](C)[C@@H](C)S(=O)(=O)NC(=O)c2ccc3c(c2)N(C[C@@H]2CC[C@H]21)C[C@@]1(CCCc2cc(Cl)ccc21)CO3 [Example 352, (1S,3′R,6′R,7′R,8′E,11′S,12′R)-6-chloro-11′,12′-dimethyl-7′-((4-(3-oxetanyl)-1-piperazinyl)methyl)-7′-propoxy-3,4-dihydro-2H,15′H-spiro[naphthalene-1,22-[20]oxa[13]thia[1,14]diazatetracyclo [14.7.2.0~3,6~.0~19,24~]pentacosa[8,16,18,24]tetraen]-15′-one 13′,13′-dioxide]
- IC50 [1, 5]: 0.111 nM
- IC50 [2, 6]: 162 nM

Compound: CO[C@@]1(CN2CCC3(CC2)COC3)/C=C/C[C@H](C)[C@@H](C)S(=O)(=O)NC(=O)c2ccc3c(c2)N(C[C@@H]2CC[C@H]21)C[C@@]1(CCCc2cc(Cl)ccc21)CO3 [Example 267, (1S,3′R,6′R,7′S,8′E,11′S,12′R)-6-chloro-7′-methoxy-11′,12′-dimethyl-7′-(2-oxa-7-azaspiro[3.5]non-7-ylmethyl)-3,4-dihydro-2H,15′H-spiro[naphthalene-1,22′-[20]oxa[13]thia[1,14]diazatetracyclo [14.7.2.0~3,6~.0~19,24~]pentacosa[8,16,18,24]tetraen]-15′-one 13′,13′-dioxide]
- IC50 [1, 5]: 0.297 nM
- IC50 [2, 6]: 250 nM

Compound: CO[C@@]1(C[C@@H](O)C2CC2)/C=C/C[C@H](C)[C@@H](C)S(=O)(=O)NC(=O)c2ccc3c(c2)N(C[C@@H]2CC[C@H]21)C[C@@]1(CCCc2cc(Cl)ccc21)CO3 (single isomer, unassigned) [Example 100460]
- IC50 [1, 3]: 0.095 nM
- IC50 [2, 7]: 433 nM

Compound: CC[C@@]1(O)/C=C/C[C@H](C)[C@@H](C)S(=O)(=O)NC(=O)c2ccc3c(c2)N(C[C@@H]2CC[C@H]21)C[C@@]1(CCCc2cc(Cl)ccc21)CO3 [Example 100206, (1S,3′R,6′R,7′R,8′E,11′S,12′R)-6-chloro-7′-ethyl-7′-hydroxy-11′,12′-dimethyl-3,4-dihydro-2H,15′H-spiro[naphthalene-1,22′-[20]oxa[13]thia[1,14]diazatetracyclo [14.7.2.0~3,6~.0~19,24~]pentacosa[8,16,18,24]tetraen]-15′-one 13′,13′-dioxide]
- IC50 [1, 3]: 1.26 nM
- IC50 [2, 7]: 1750 nM

Compound: C[C@@H]1[C@@H](C)C/C=C/[C@](O)(c2ccncn2)[C@@H]2CC[C@H]2CN2C[C@@]3(CCCc4cc(Cl)ccc43)COc3ccc(cc32)C(=O)NS1(=O)=O [Example 100361, (1S,3′R,6′R,7′R,8′E,11′S,12′R)-6-chloro-7′-hydroxy-11′,12′-dimethyl-7′-(4-pyrimidinyl)-3,4-dihydro-2H,15′H-spiro[naphthalene-1,22′-[20]oxa[13]thia[1,14]diazatetracyclo [14.7.2.0~3,6~.0~19,24~]pentacosa[8,16,18,24]tetraen]-15′-one 13′,13′-dioxide]
- IC50 [1, 3]: 0.208 nM
- IC50 [2, 7]: 155 nM

Compound: CO[C@]1(C[C@H](O)C(C)C)/C=C/C[C@H](C)[C@@H](C)S(=O)(=O)NC(=O)c2ccc3c(c2)N(C[C@@H]2CC[C@H]21)C[C@@]1(CCCc2cc(Cl)ccc21)CO3 [Example 100358, (1S,3′R,6′R,7′R,8′E,11′S,12′R)-6-chloro-7′-((2S)-2-hydroxy-3-methylbutyl)-7′-methoxy-11′,12′-dimethyl-3,4-dihydro-2H,15′H-spiro[naphthalene-1,22′-[20]oxa[13]thia[1,14]diazatetracyclo [14.7.2.0~3,6~.0~19,24~]pentacosa[8,16,18,24]tetraen]-15′-one 13′,13′-dioxide]
- IC50 [1, 3]: 0.118 nM
- IC50 [2, 4]: 81 nM

Compound: C[C@@H]1[C@@H](C)CCC[C@@](O)(Cc2nccs2)[C@@H]2CC[C@H]2CN2C[C@@]3(CCCc4cc(Cl)ccc43)COc3ccc(cc32)C(=O)NS1(=O)=O (single isomer, unassigned) [Example 100250]
- IC50 [1, 3]: 0.136 nM
- IC50 [2, 4]: 82 nM

Compound: C[C@@H]1[C@@H](C)CCC[C@](C)(CO)[C@@H]2CC[C@H]2CN2C[C@@]3(CCCc4cc(Cl)ccc43)COc3ccc(cc32)C(=O)NS1(=O)=O [Example 100301, (1S,3′R,6′R,7′S,11′S,12′R)-6-chloro-7′-(hydroxymethyl)-7′,11′,12′-trimethyl-3,4-dihydro-2H,15′H-spiro[naphthalene-1,22′-[20]oxa[13]thia[1,14]diazatetracyclo [14.7.2.0~3,6~.0~19,24~]pentacosa[16,18,24]trien]-15′-one 13′,13′-dioxide]
- IC50 [1, 3]: 1.31 nM
- IC50 [2, 7]: 1930 nM

Compound: C[C@@H]1[C@@H](C)CCC[C@@](O)(CC(=O)N2CCCC2)[C@@H]2CC[C@H]2CN2C[C@@]3(CCCc4cc(Cl)ccc43)COc3ccc(cc32)C(=O)NS1(=O)=O [Example 100107, (1S,3′R,6′R,7′R,11′S,12′R)-6-chloro-7′-hydroxy-11′,12′-dimethyl-7′-(2-oxo-2-(1-pyrrolidinyl)ethyl)-3,4-dihydro-2H,15′H-spiro[naphthalene-1,22′-[20]oxa[13]thia[1,14]diazatetracyclo [14.7.2.0~3,6~.0~19,24~]pentacosa[16,18,24]trien]-15′-one 13′,13′-dioxide]
- IC50 [1, 3]: 0.296 nM
- IC50 [2, 7]: 181 nM

Compound: C[C@@H]1[C@@H](C)C/C=C/[C@@](O)(C#CCN2CCS(=O)(=O)CC2)[C@@H]2CC[C@H]2CN2C[C@@]3(CCCc4cc(Cl)ccc43)COc3ccc(cc32)C(=O)NS1(=O)=O [Example 100389, (1S,3′R,6′R,7′S,8′E,11′S,12′R)-6-chloro-7′-(3-(1,1-dioxido-4-thiomorpholinyl)-1-propyn-1-yl)-7′-hydroxy-11′,12′-dimethyl-3,4-dihydro-2H,15′H-spiro[naphthalene-1,22′-[20]oxa[13]thia[1,14]diazatetracyclo [14.7.2.0~3,6~.0~19,24~]pentacosa[8,16,18,24]tetraen]-15′-one 13′,13′-dioxide]
- IC50 [1, 3]: 0.101 nM
- IC50 [2, 4]: 114 nM

Compound: COCC[C@@H]1[C@@H](C)C/C=C/[C@](CN2CCN3CCOC[C@@H]3C2)(OC)[C@@H]2CC[C@H]2CN2C[C@@]3(CCCc4cc(Cl)ccc43)COc3ccc(cc32)C(=O)NS1(=O)=O [Example 179, (1S,3′R,6′R,7′S,8′E,11′S,12′R)-6-chloro-7′-((9aS)-hexahydropyrazino[2,1-c][1,4]oxazin-8(1H)-ylmethyl)-7′-methoxy-12′-(2-methoxyethyl)-11′-methyl-3,4-dihydro-2H,15′H-spiro[naphthalene-1,22′-[20]oxa[13]thia[1,14]diazatetracyclo [14.7.2.0~3,6~.0~19,24~]pentacosa[8,16,18,24]tetraen]-15′-one 13′,13′-dioxide]
- IC50 [1, 5]: 0.072 nM
- IC50 [2, 6]: 36 nM

Compound: C=C(C)[C@@H](O)C[C@]1(OC)/C=C/C[C@H](C)[C@@H](C)S(=O)(=O)NC(=O)c2ccc3c(c2)N(C[C@@H]2CC[C@H]21)C[C@@]1(CCCc2cc(Cl)ccc21)CO3 [Example 100471, (1S,3′R,6′R,7′S,8′E,11′S,12′R)-6-chloro-7′-((2S)-2-hydroxy-3-methyl-3-buten-1-yl)-7′-methoxy-11′,12′-dimethyl-3,4-dihydro-2H,15′H-spiro[naphthalene-1,22′-[20]oxa[13]thia[1,14]diazatetracyclo [14.7.2.0~3,6~.0~19,24~]pentacosa[8,16,18,24]tetraen]-15′-one 13′,13′-dioxide]
- IC50 [1]: 0.281 nM
- IC50 [2, 4]: 299 nM
